Laboratory results taken from article PMC12298351, “Novel 3,19-(N-Phenyl-3-(4-fluorophenyl)-pyrazole) Acetal of Andrographolide Promotes Cell Cycle Arrest and Apoptosis in MDA-MB-231 Breast Cancer Cells” (Pharmaceuticals, 2025).

Tests used:
[1] = test system: SF-268; settings: SF-268, CNS
[2] = test system: UO-31; settings: UO-31, Renal
[3] = test system: MALME-3M; settings: Melanoma
[4] = test system: OVCAR-5; settings: OVCAR-5, Ovarian
[5] = test system: NCI-H460
[6] = test system: HS 578T
[7] = test system: SK-MEL-5; settings: SK-MEL-5, Melanoma
[8] = test system: COLO 205; settings: COLO 205, Colon
[9] = test system: MDA-MB-231
[10] = test system: K-562; settings: K-562, Leukemia
[11] = test system: CAKI-1; settings: CAKI-1, Renal
[12] = test system: HOP-92
[13] = test system: SNB-75; settings: SNB-75, CNS
[14] = test system: NCI-H226
[15] = test system: HT29; settings: HT29, Colon
[16] = test system: LOX IMVI
[17] = test system: SK-MEL-28; settings: SK-MEL-28, Melanoma
[18] = test system: ACHN
[19] = test system: A549/ATCC
[20] = test system: NCI/ADR-RES
[21] = test system: SNB-19; assay type: cell-based; settings: SNB-19, CNS
[22] = test system: 786-0; settings: 786-0, Renal
[23] = test system: KM12; settings: KM12, Colon
[24] = test system: MCF7; settings: MCF7, Breast
[25] = test system: DU-145; settings: DU-145, Prostate
[26] = test system: IGROV1; settings: IGROV1, Ovarian
[27] = test system: MDA-MB-468; settings: MDA-MB-468, Breast
[28] = test system: BT-549; assay type: cell-based; settings: BT-549, Breast
[29] = test system: SW-620; settings: SW-620, Colon
[30] = test system: SK-OV-3; settings: SK-OV-3, Ovarian
[31] = test system: SN12C
[32] = read-out: 50% lethal concentration (LC50)
[33] = read-out: 50% lethal concentration (LC50), Renal

## C=C1CCC2C3(C)COC(c4cn(-c5ccccc5)nc4-c4ccc(F)cc4)OC3CCC2(C)C1CC=C1C(=O)OCC1O (stereo not shown) [1f, 3,19-(N-Phenyl-3-(4-fluorophenyl)-pyrazole) Acetal of Andrographolide]
[1]
  GI50: 2360 nM
  Total growth inhibition (TGI): 5.63 µM
[1]; [32]
  CC50: 25.7 µM
[2]
  GI50: 1600 nM
  Total growth inhibition (TGI): 3.34 µM
[2]; [32]
  CC50: 5.14 µM
[3]
  GI50: 1580 nM
  Total growth inhibition (TGI): 3.02 µM
[4]
  GI50: 1740 nM
  Total growth inhibition (TGI): 3.88 µM
[4]; [32]
  CC50: 8.66 µM
[5]; NCI-H460, Non-Small Cell Lung
  Total growth inhibition (TGI): 3.33 µM
[5]; NCI-H460, Non-Small-Cell Lung
  GI50: 1690 nM
[5]; read-out: 50% lethal concentration (LC50), NCI-H460, Non-Small Cell Lung
  CC50: 6.57 µM
[6]; Breast
  GI50: 1510 nM
  Total growth inhibition (TGI): 2.94 µM
[6]; read-out: 50% lethal concentration (LC50), Breast
  CC50: 5.72 µM
[7]
  GI50: 1620 nM
  Total growth inhibition (TGI): 2.98 µM
[7]; [32]
  CC50: 5.47 µM
[8]
  GI50: 1480 nM
  Total growth inhibition (TGI): 3.2 µM
[9]; MDA-MB-231, Breast
  GI50: 1680 nM
[9]; MDA-MB-231/ATCC, Breast
  Total growth inhibition (TGI): 3.28 µM
[9]; read-out: 50% lethal concentration (LC50), MDA-MB-231/ATCC, Breast
  CC50: 6.41 µM
[10]
  GI50: 2340 nM
  Total growth inhibition (TGI): > 100 µM
[10]; [32]
  CC50: > 100 µM
[11]
  GI50: 1580 nM
  Total growth inhibition (TGI): 3.17 µM
[11]; [32]
  CC50: 6.34 µM
[12]; HOP-92, Non-Small Cell Lung
  Total growth inhibition (TGI): 2.73 µM
[12]; HOP-92, Non-Small-Cell Lung
  GI50: 1290 nM
[12]; read-out: 50% lethal concentration (LC50), HOP-92, Non-Small Cell Lung
  CC50: 5.78 µM
[13]
  GI50: 1660 nM
  Total growth inhibition (TGI): 3.09 µM
[13]; [32]
  CC50: 5.86 µM
[14]; NCI-H226, Non-Small Cell Lung
  Total growth inhibition (TGI): 2.94 µM
[14]; NCI-H226, Non-Small-Cell Lung
  GI50: 1510 nM
[14]; read-out: 50% lethal concentration (LC50), NCI-H226, Non-Small Cell Lung
  CC50: 5.75 µM
[15]
  GI50: 2380 nM
  Total growth inhibition (TGI): 7.63 µM
[15]; [32]
  CC50: 93.9 µM
[16]; Melanoma
  GI50: 1320 nM
  Total growth inhibition (TGI): 2.59 µM
[16]; read-out: 50% lethal concentration (LC50), Melanoma
  CC50: 5.09 µM
[17]
  GI50: 1660 nM
  Total growth inhibition (TGI): 3.12 µM
[17]; [32]
  CC50: 5.86 µM
[18]; Renal
  GI50: 1660 nM
  Total growth inhibition (TGI): 3.11 µM
[18]; [33]
  CC50: 5.82 µM
[19]; Non-Small Cell Lung
  Total growth inhibition (TGI): 5.92 µM
[19]; Non-Small-Cell Lung
  GI50: 2140 nM
[19]; read-out: 50% lethal concentration (LC50), Non-Small Cell Lung
  CC50: 51.5 µM
[20]; Ovarian
  GI50: 1540 nM
  Total growth inhibition (TGI): 3.57 µM
[20]; read-out: 50% lethal concentration (LC50), Ovarian
  CC50: 8.29 µM
[21]
  GI50: 1440 nM
  Total growth inhibition (TGI): 2.91 µM
[22]
  GI50: 1600 nM
  Total growth inhibition (TGI): 3.34 µM
[22]; [32]
  CC50: 6.96 µM
[23]
  GI50: 1840 nM
  Total growth inhibition (TGI): 3.59 µM
[24]
  GI50: 1430 nM
  Total growth inhibition (TGI): 4.13 µM
[24]; [32]
  CC50: 63.1 µM
[25]
  GI50: 1820 nM
  Total growth inhibition (TGI): 3.44 µM
[25]; [32]
  CC50: 6.52 µM
[26]
  GI50: 1840 nM
  Total growth inhibition (TGI): 4.75 µM
[26]; [32]
  CC50: > 100 µM
[27]
  GI50: 1530 nM
  Total growth inhibition (TGI): 2.96 µM
[27]; [32]
  CC50: 5.71 µM
[28]
  GI50: 1310 nM
  Total growth inhibition (TGI): 3.18 µM
[29]
  GI50: 4.49 µM
  Total growth inhibition (TGI): > 100 µM
[29]; [32]
  CC50: > 100 µM
[30]
  GI50: 1880 nM
  Total growth inhibition (TGI): 5.48 µM
[30]; [32]
  CC50: 30.7 µM
[31]; Renal
  GI50: 1550 nM
  Total growth inhibition (TGI): 3.27 µM
[31]; [33]
  CC50: 6.93 µM
